Results on one compound are retold here after PMC3816012 (Structure (London, England : 1993), 2013).

By Kd is commonly meant a measure of binding affinity in units of concentration.

This assay concerns the target Qcl (Legionella pneumophila, UniProt O54635). Nature of the assay: biochemical.

Chain of Qcl (O54635 49-191 limits assumed): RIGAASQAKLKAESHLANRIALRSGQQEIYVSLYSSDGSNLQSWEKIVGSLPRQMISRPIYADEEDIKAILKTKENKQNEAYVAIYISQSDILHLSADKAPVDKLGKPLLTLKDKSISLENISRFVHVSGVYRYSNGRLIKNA

In the case of `NC(=O)c1ccc[n+]([C@@H]2O[C@H](COP(=O)(O)OP(=O)(O)OC[C@H]3O[C@@H](n4cnc5c(N)ncnc54)[C@H](O)[C@@H]3O)[C@@H](O)[C@H]2O)c1` [NAD+], the Kd lay within 400 to 600 µM.
